Test results: PubChem BioAssay AID1963974 (Molecular Pharmacology Branch, DTP, NCI, 2024)
pIC50: −log10 of the molar value. “And” between values parts separate entries of the source, which are not always exact repeats. Identical values can stand only once.

Test system: 648629-189-R-J1-PDC spheroids with HUVEC/MSC, viability
Assay: Anticancer human tumor 648629-189-R-J1-PDC patient-derived bladder carcinoma cell line growth inhibition [PI3K]
Conditions: for viability, T/C: stronger effect = lower value
Procedure, shortened: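 Multi-cell spheroids combine tumor cells with HUVEC and human MSCs, treated with targeted agents alone or with inavolisib, alpelisib, duvelisib or copanlisib. Concentrations fall in half-log steps from at or near clinical Cmax, or from 10 microM where Cmax is unknown; viability read-out.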

[1] = curve of first compound, second compound 0.0316 µM
[2] = curve of first compound, second compound 0.1 µM
[3] = curve of first compound, second compound 0.316 µM
[4] = curve of first compound, second compound 1 µM
[5] = second compound 0.0316 µM, first compound 0.0316 µM
[6] = second compound 0.0316 µM, first compound 0.1 µM
[7] = second compound 0.0316 µM, first compound 0.316 µM
[8] = second compound 0.0316 µM, first compound 1 µM
[9] = second compound 0.0316 µM, first compound 3.16 µM
[10] = second compound 0.0316 µM, first compound 10 µM
[11] = second compound 0.1 µM, first compound 0.0316 µM
[12] = second compound 0.1 µM, first compound 0.1 µM
[13] = second compound 0.1 µM, first compound 0.316 µM
[14] = second compound 0.1 µM, first compound 1 µM
[15] = second compound 0.1 µM, first compound 3.16 µM
[16] = second compound 0.1 µM, first compound 10 µM
[17] = second compound 0.316 µM, first compound 0.0316 µM
[18] = second compound 0.316 µM, first compound 0.1 µM
[19] = second compound 0.316 µM, first compound 0.316 µM
[20] = second compound 0.316 µM, first compound 1 µM
[21] = second compound 0.316 µM, first compound 3.16 µM
[22] = second compound 0.316 µM, first compound 10 µM
[23] = second compound 1 µM, first compound 0.0316 µM
[24] = second compound 1 µM, first compound 0.1 µM
[25] = second compound 1 µM, first compound 0.316 µM
[26] = second compound 1 µM, first compound 1 µM
[27] = second compound 1 µM, first compound 3.16 µM
[28] = second compound 1 µM, first compound 10 µM
[29] = curve of first compound, second compound 0.00316 µM
[30] = curve of first compound, second compound 0.01 µM
[31] = second compound 0.00316 µM, first compound 0.0316 µM
[32] = second compound 0.00316 µM, first compound 0.1 µM
[33] = second compound 0.01 µM, first compound 0.0316 µM
[34] = second compound 0.01 µM, first compound 0.1 µM
[35] = second compound 0.00316 µM, first compound 0.316 µM
[36] = second compound 0.00316 µM, first compound 1 µM
[37] = second compound 0.00316 µM, first compound 3.16 µM
[38] = second compound 0.00316 µM, first compound 10 µM
[39] = second compound 0.01 µM, first compound 0.316 µM
[40] = second compound 0.01 µM, first compound 1 µM
[41] = second compound 0.01 µM, first compound 3.16 µM
[42] = second compound 0.01 µM, first compound 10 µM
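Also: spheroids exposed to agents for seven days before reading.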
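For viability, T/C in this document: percent of vehicle control luminescence where 100% = DMSO treated spheroids.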

CC(C)NCC(C(=O)N1CCN(c2ncnc3c2C(C)CC3O)CC1)c1ccc(Cl)cc1 (centres undefined) + CC(Nc1ncnc2nc[nH]c12)c1cc2cccc(Cl)c2c(=O)n1-c1ccccc1
pIC50 [1]: 5.98 | pIC50 [2]: 5.82 | pIC50 [3]: 5.94 | pIC50 [4]: 5.91 | pIC50 (curve of first compound, second compound 3.16 µM): 6.04 | pIC50 (curve of first compound, second compound 10 µM): 6.00 | viability, T/C [5]: 99.8% | viability, T/C [6]: 93.6% | viability, T/C [7]: 82% | viability, T/C [8]: 49.4% | viability, T/C [9]: 28.9% | viability, T/C [10]: 17.3% | viability, T/C [11]: 97.3% | viability, T/C [12]: 90.3% | viability, T/C [13]: 79.7% | viability, T/C [14]: 61.3% | viability, T/C [15]: 32.2% | viability, T/C [16]: 19.3% | viability, T/C [17]: 97.4% | viability, T/C [18]: 91.2% | viability, T/C [19]: 76.3% | viability, T/C [20]: 53.4% | viability, T/C [21]: 29.2% | viability, T/C [22]: 17.7% | viability, T/C [23]: 93.6% | viability, T/C [24]: 94.5% | viability, T/C [25]: 80.7% | viability, T/C [26]: 54.2% | viability, T/C [27]: 29.4% | viability, T/C [28]: 17.5% | viability, T/C (second compound 3.16 µM, first compound 0.0316 µM): 101% | viability, T/C (second compound 3.16 µM, first compound 0.1 µM): 91.3% | viability, T/C (second compound 3.16 µM, first compound 0.316 µM): 72.6% | viability, T/C (second compound 3.16 µM, first compound 1 µM): 48.6% | viability, T/C (second compound 3.16 µM, first compound 3.16 µM): 25.9% | viability, T/C (second compound 3.16 µM, first compound 10 µM): 15.5% | viability, T/C (second compound 10 µM, first compound 0.0316 µM): 83.8% | viability, T/C (second compound 10 µM, first compound 0.1 µM): 72.2% | viability, T/C (second compound 10 µM, first compound 0.316 µM): 79.4% | viability, T/C (second compound 10 µM, first compound 1 µM): 48.4% | viability, T/C (second compound 10 µM, first compound 3.16 µM): 28.3% | viability, T/C (second compound 10 µM, first compound 10 µM): 18.2%

CC(=O)c1c(C)c2cnc(Nc3ccc(N4CCNCC4)cn3)nc2n(C2CCCC2)c1=O + CC(Nc1ccc2c(c1)OCCn1cc(N3C(=O)OCC3C(F)F)nc1-2)C(N)=O
pIC50 [29]: < 7.00 | pIC50 [30]: < 7.00 | pIC50 [1]: < 7.00 | pIC50 [2]: < 7.00 | pIC50 [3]: < 7.00 | pIC50 [4]: < 7.00 | viability, T/C (second compound 0.00316 µM, first compound 0.000316 µM): 102% | viability, T/C (second compound 0.00316 µM, first compound 0.001 µM): 103% | viability, T/C (second compound 0.00316 µM, first compound 0.00316 µM): 105% | viability, T/C (second compound 0.00316 µM, first compound 0.01 µM): 95.5% | viability, T/C [31]: 108% | viability, T/C [32]: 112% | viability, T/C (second compound 0.01 µM, first compound 0.000316 µM): 101% | viability, T/C (second compound 0.01 µM, first compound 0.001 µM): 103% | viability, T/C (second compound 0.01 µM, first compound 0.00316 µM): 88% | viability, T/C (second compound 0.01 µM, first compound 0.01 µM): 99.4% | viability, T/C [33]: 98.9% | viability, T/C [34]: 104% | viability, T/C (second compound 0.0316 µM, first compound 0.000316 µM): 88.5% | viability, T/C (second compound 0.0316 µM, first compound 0.001 µM): 105% | viability, T/C (second compound 0.0316 µM, first compound 0.00316 µM): 95.9% | viability, T/C (second compound 0.0316 µM, first compound 0.01 µM): 99.9% | viability, T/C [5]: 97.4% | viability, T/C [6]: 96.4% | viability, T/C (second compound 0.1 µM, first compound 0.000316 µM): 104% | viability, T/C (second compound 0.1 µM, first compound 0.001 µM): 92.1% | viability, T/C (second compound 0.1 µM, first compound 0.00316 µM): 82.8% | viability, T/C (second compound 0.1 µM, first compound 0.01 µM): 88.3% | viability, T/C [11]: 96.2% | viability, T/C [12]: 102% | viability, T/C (second compound 0.316 µM, first compound 0.000316 µM): 81.5% | viability, T/C (second compound 0.316 µM, first compound 0.001 µM): 87.2% | viability, T/C (second compound 0.316 µM, first compound 0.00316 µM): 85% | viability, T/C (second compound 0.316 µM, first compound 0.01 µM): 82.4% | viability, T/C [17]: 76.4% | viability, T/C [18]: 94.5% | viability, T/C (second compound 1 µM, first compound 0.000316 µM): 67% | viability, T/C (second compound 1 µM, first compound 0.001 µM): 65.7% | viability, T/C (second compound 1 µM, first compound 0.00316 µM): 78.4% | viability, T/C (second compound 1 µM, first compound 0.01 µM): 80% | viability, T/C [23]: 63.4% | viability, T/C [24]: 71.2%

CC1(C)CCC(CN2CCN(c3ccc(C(=O)NS(=O)(=O)c4ccc(NCC5CCOCC5)c([N+](=O)[O-])c4)c(Oc4cnc5[nH]ccc5c4)c3)CC2)=C(c2ccc(Cl)cc2)C1
viability, T/C (compound 0.0316 µM): 102% (2×) and 94.5% and 111% | viability, T/C (compound 0.1 µM): 101% (2×) and 96.3% and 98.1% | viability, T/C (compound 0.316 µM): 110% [middle of 4 runs] | viability, T/C (compound 1 µM): 98.5% [middle of 4 runs] | viability, T/C (compound 3.16 µM): 89% [middle of 4 runs] | pIC50 (curve of compound): < 5.00 and 5.31 and 5.28

CNC(=O)c1ccc(N2C(=S)N(c3ccc(C#N)c(C(F)(F)F)c3)C(=O)C2(C)C)cc1F + CC(Nc1ccc2c(c1)OCCn1cc(N3C(=O)OCC3C(F)F)nc1-2)C(N)=O
pIC50 [29]: < 5.00 | pIC50 [30]: < 5.00 | pIC50 [1]: < 5.00 | pIC50 [2]: < 5.00 | pIC50 [3]: < 5.00 | pIC50 [4]: < 5.00 | viability, T/C [31]: 107% | viability, T/C [32]: 96.5% | viability, T/C [35]: 107% | viability, T/C [36]: 97.6% | viability, T/C [37]: 110% | viability, T/C [38]: 83.4% | viability, T/C [33]: 99.6% | viability, T/C [34]: 109% | viability, T/C [39]: 97.2% | viability, T/C [40]: 98.1% | viability, T/C [41]: 94.8% | viability, T/C [42]: 87.1% | viability, T/C [5]: 103% | viability, T/C [6]: 107% | viability, T/C [7]: 102% | viability, T/C [8]: 101% | viability, T/C [9]: 90.5% | viability, T/C [10]: 78.5% | viability, T/C [11]: 93% | viability, T/C [12]: 94.8% | viability, T/C [13]: 102% | viability, T/C [14]: 102% | viability, T/C [15]: 88% | viability, T/C [16]: 79.2% | viability, T/C [17]: 83.4% | viability, T/C [18]: 79.1% | viability, T/C [19]: 93% | viability, T/C [20]: 75.5% | viability, T/C [21]: 84.3% | viability, T/C [22]: 68% | viability, T/C [23]: 69.7% | viability, T/C [24]: 67.5% | viability, T/C [25]: 72.1% | viability, T/C [26]: 63.7% | viability, T/C [27]: 75.4% | viability, T/C [28]: 68%

CC(Cn1ccc(-c2ccc(C#N)c(Cl)c2)n1)NC(=O)c1cc(C(C)O)[nH]n1 (centres undefined) + COc1c(OCCCN2CCOCC2)ccc2c3n(c(=NC(=O)c4cnc(N)nc4)nc12)CCN3
pIC50 [29]: < 5.00 | pIC50 [30]: < 5.00 | pIC50 [1]: < 5.00 | pIC50 [2]: < 5.00 | pIC50 [3]: > 7.50 | pIC50 [4]: > 7.50 | viability, T/C [31]: 94.9% | viability, T/C [32]: 92.4% | viability, T/C [35]: 97.9% | viability, T/C [36]: 96.4% | viability, T/C [37]: 83.8% | viability, T/C [38]: 73.9% | viability, T/C [33]: 100% | viability, T/C [34]: 105% | viability, T/C [39]: 102% | viability, T/C [40]: 92.7% | viability, T/C [41]: 89.1% | viability, T/C [42]: 74.3% | viability, T/C [5]: 96.5% | viability, T/C [6]: 93.5% | viability, T/C [7]: 95.8% | viability, T/C [8]: 90.4% | viability, T/C [9]: 86.5% | viability, T/C [10]: 70.8% | viability, T/C [11]: 65.9% | viability, T/C [12]: 64.1% | viability, T/C [13]: 77.5% | viability, T/C [14]: 65.5% | viability, T/C [15]: 64% | viability, T/C [16]: 61.5% | viability, T/C [17]: 23% | viability, T/C [18]: 18.7% | viability, T/C [19]: 22.9% | viability, T/C [20]: 23.2% | viability, T/C [21]: 26.4% | viability, T/C [22]: 21.3% | viability, T/C [23]: 3.56% | viability, T/C [24]: 3.29% | viability, T/C [25]: 3.07% | viability, T/C [26]: 3.97% | viability, T/C [27]: 4.94% | viability, T/C [28]: 2.75%
